Laboratory results published in patent US5489598A, “Cytoprotection utilizing aryltriazol-3-thiones” (Warner-Lambert Company, priority 1994, dated 1996).

What was measured:
Mac-1 (CD11b/CD18) = molecular target: T1, Mac-1 (CD11b/CD18) (Homo sapiens, UniProt P05107+P11215); experiment: Human Neutrophil Mac-1 Adhesion Assay (PMN KLH); format: cell-based; details: human neutrophils, FMLP-stimulated, KLH coated plates
T1 construct: methodology to isolate neutrophils from ethylenediaminetetraacetic acid (EDTA)-treated venous blood obtained from healthy human volunteers; endogenous in cells; host or cells: neutrophils (PMN) freshly isolated from venous blood of healthy human volunteers
Procedure: Protocol for Human Neutrophil Mac-1 Adhesion Assay
We evaluated several 5-aryltriazol-3-thiones utilizing methodology similar to that of Ferrante and Thong as described in J. Immunol. […] Namely, we utilized Ferrante and Thong's methodology to isolate neutrophils from ethylenediaminetetraacetic acid (EDTA)-treated venous blood obtained from healthy human volunteers. Keyhole limpet hemocyanin (KLH) coated microtiter plates were prepared as follows:
All pipetting was automated using the Cetus Pro/Pette (Perkin-Elmer; division of Applied Biosystems, Foster, Calif.). KLH, Megathura crenulata; Calbiochem-Novabiochem, La Jolla, Calif., was prepared at a concentration of 0.5 mg/mL in Dulbecco's PBS phosphate buffered saline (PBS) with CA++, pH 7.2 (DPBS).
Microtiter plates are prewashed with 50% EtOH for 1 hour at 37° C., then drained and blotted to dryness. Then 0.3 mL KLH solution was pipetted into each well of the 96 well microtiter plate, covered and incubated overnight at 37° C. Plates are then inverted to drain, blotted to dryness, washed with 0.3 mL cold D-PBS, drained, blotted to dryness, then stored at 4° C. until use.
Procedure for PMN KLH (Mac-1 Adhesion Assay)
On the Pro/Pette system, a treatment plate was placed in plate position 1 (P-1), buffer Micro.trof was placed in plate position 2 (P-2), and a single row of tips in a spare magazine are placed in the tip position on the carriage. Two hundred ten μL aliquots D-PBS are pipetted into all wells (105 μL using Cetus File #18, Micro.trof 3, no mixes, tip row H, no tip change, run twice). Drug plate was placed in plate position 2 (P-2). Donor drug plates were prepared to contain buffer or drug in appropriate wells. Thirty μL drug or D-PBS buffer are pipetted into appropriate wells in the treatment plate in position 1 (P-1) (Cetus File #17, one mix before and after, changing tips) from donor plate. Thirty μL of neutrophils (PMNs) (30 μL of 10^7 cells/mL) were next pipetted from either a Micro.trof 1, position 2 (P-2), or a row of 0.5 mL capacity microcentrifuge tubes (Sarstedt RIA vials) to plate 1 using Cetus File #18, changing tips, one mix (50 μL) before and after. Cells and drug were then incubated for 10 minutes at 37° C. Agonist (e.g., FMLP) or D-PBS buffer (30 μL) were next pipetted to appropriate wells using Cetus File #18 (Micro.trof) or Cetus File #42 (for plate to plate), changing tips and one mix before and after. Cell/drug/agonist mixture was then incubated for 60 minutes at 37° C. After the incubation period, the treatment plate is gently inverted to drain, blotted lightly to dryness on a paper towel. The treatment plate is then washed with 300 μL D-PBS buffer using Cetus File #18, using pump at slow speed, again inverted to drain, and again blotted to dryness. Adherent cells are stained by the addition of 150 μL D-PBS buffer to all wells, using Cetus File #18, Micro.trof 3 no tip change. […] The treatment plate is then incubated overnight at 37° C.
After overnight incubation, the treatment plate is gently inverted to drain, blotted to dryness on paper towel, then gently washed with 300 μL D-PBS buffer using Cetus File #18, using pump at slow sped. The treatment plate is then gently inverted to drain, and blotted to dryness. The washing of the treatment plate is repeated until all excess dye is removed.
The treatment plate is then covered and incubated for 60 minutes at 37° C. After the incubation, 150 μL 50% EtOH is added to each well of the treatment plate using Cetus File #18, Micro.trof 3, mixing three times, changing tips. […]
a. mean unstimulated cell control OD is determined and subtracted from all other values b. mean net stimulated, e.g., FMLP, control values are determined c. mean drug values are determined and percent drug inhibition vs. stimulus control are calculated as follows: [formula] d. IC50 determinations, plotting logdose vs. percent inhibition, are determined by linear regression analysis using the least squares method.

[1] = tested on: gastric damage (acidified aspirin); experiment: Cytoprotection study: gastric damage by oral acidified aspirin; format: in vivo, Sprague-Dawley rats; details: Rattus norvegicus; 1 mg/kg PO, 15 min before oral acidified aspirin 288 mg/kg; female rats
Procedure: Protocol for Cytoprotection Studies
For all studies, random-bred, barrier-raised, SPF, female Sprague-Dawley rats (Charles River Laboratories, Portage, Mich.) weighing 180-300 g were used. Animals were acclimated for at least 1 week prior to the studies and housed in wire bottom cages supplied with macrofiltered fresh tap water and Purina Rat Chow #5012 (Purina Mills Inc., Richmond, Ind.) ad libitum. The animal rooms were kept at 22° C.±1° C. and 50% humidity.
All animals were food fasted for 24 hours and water deprived for 2 or more hours prior to treatment administration. For oral dosing, Aspirin (acetylsalicylic acid, Sigma, St. Louis, Mo.) was dissolved in an aqueous solution of 150 mM HCl (Takeucvhi K., Digestive Disease and Science, 35:178-185 (1990)). Misoprostol was used as a standard. The test compound was dissolved in double glass distilled water, normal saline USP (NS) or the misoprostol phosphate buffer vehicle. All oral doses of misoprostol and test compounds were administered in a volume of 1 mL/animal. All oral dosing was done by gavage using a 3 mL syringe attached to a […], 17 gauge gavage needle.
The test compounds were administered in 1 mL 15 minutes prior to treatment with an oral dose of acidified aspirin (288 mg/kg in 150 mM HCl) given in 1 mL. Stomachs were removed to assess gastric damage 30 minutes after exposure to the damaging agent. The stomach was isolated through a midline incision in the abdomen followed by clamping of the esophagus and duodenum. Seven milliliters of 10% formalin (Fisher Scientific, Fair Lawn, N.J.) was injected into the stomach which was then excised and submerged in formalin for at least 10 minutes. The stomach was then opened along the greater curvature and pinned flat and submerged in formalin overnight. After the forestomach and exterior blood vessels were trimmed away, the tissues were clarified with glycerol (E. M. Science, Gibbstown, N.J.) and flattened between Plexiglass plates. Gastric damage was measured with a Cambridge Instruments LTD., (Cambridge, UK) Quantimet 970 Image Analysis System. Hemorrhagic damage appeared as darkened areas on a background of lighter undamaged tissue. This darker area was detected and surface area measured by the image analyzer. In addition, the complete stomachs were also completely submerged in 0.1N solution of iodine (J. T. Baker Chemical Co., Phillipsburg, N.J.), and the total stomach surface area was determined. The system was calibrated prior to each use with a standard sample. The percent damage and percent protection was computed by the following equation: [formula]

T1 sequence (P05107 23-769, other chains not shown): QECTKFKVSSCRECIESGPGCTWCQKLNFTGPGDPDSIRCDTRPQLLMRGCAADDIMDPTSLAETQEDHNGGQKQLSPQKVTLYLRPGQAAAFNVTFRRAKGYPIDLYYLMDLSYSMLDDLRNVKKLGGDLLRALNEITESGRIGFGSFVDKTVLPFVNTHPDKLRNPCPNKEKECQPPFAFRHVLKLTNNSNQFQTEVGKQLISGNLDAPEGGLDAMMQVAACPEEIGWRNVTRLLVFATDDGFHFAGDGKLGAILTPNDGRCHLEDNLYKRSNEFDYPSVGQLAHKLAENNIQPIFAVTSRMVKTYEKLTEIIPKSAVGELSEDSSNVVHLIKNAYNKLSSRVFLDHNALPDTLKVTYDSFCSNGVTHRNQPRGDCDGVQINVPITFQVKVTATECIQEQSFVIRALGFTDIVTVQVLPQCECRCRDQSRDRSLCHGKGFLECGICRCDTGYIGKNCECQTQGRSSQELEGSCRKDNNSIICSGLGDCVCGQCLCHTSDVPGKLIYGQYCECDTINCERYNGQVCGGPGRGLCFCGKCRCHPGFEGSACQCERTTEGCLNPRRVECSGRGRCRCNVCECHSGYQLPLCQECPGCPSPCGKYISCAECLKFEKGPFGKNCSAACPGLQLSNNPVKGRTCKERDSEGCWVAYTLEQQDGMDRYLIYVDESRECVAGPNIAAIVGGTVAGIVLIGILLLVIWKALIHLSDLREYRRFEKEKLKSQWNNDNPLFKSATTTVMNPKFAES

Row | SMILES | inhibition at 33 µM (Mac-1 (CD11b/CD18)) [%] | IC50 (Mac-1 (CD11b/CD18)) [µM] | inhibition in vivo at 1 mg/kg [1] [%]
1 | CCn1c(-c2ccc(N)cc2)n[nH]c1=S [Example 2, 5-(4-aminophenyl)-4-ethyl-2,4-dihydro-[1,2,4]triazol-3-thione] | 36.9 |  | 
2 | CCn1c(-c2ccc(O)cc2)n[nH]c1=S [Example 4, 5-(4-hydroxyphenyl)-4-ethyl-2,4-dihydro-[1,2,4]triazol-3-thione] |  | 7.8 | 
3 | CCn1c(S)nnc1-c1ccccc1O [Example 5, 5-(2-hydroxyphenyl)-4-ethyl-2,4-dihydro-[1,2,4]triazol-3-thione] |  | 4.3 | 
4 | CCn1c(-c2cc(Cl)ccc2N)n[nH]c1=S [Example 6, 5-(2-amino-5-chlorophenyl)-4-ethyl-2,4-dihydro-[1,2,4]triazol-3-thione] |  | 0.8 | 55.1
5 | CCn1c(-c2cc(OC)c(OC)cc2N)n[nH]c1=S [Example 7, 5-(2-amino-4,5-dimethoxyphenyl)-4-ethyl-2,4-dihydro-[1,2,4]triazol-3-thione] |  | 7.1 | 
6 | CCn1c(-c2ccc(OC)cc2)n[nH]c1=S [Example 11, 5-(4-methoxyphenyl)-4-ethyl-2,4-dihydro-[1,2,4]triazol-3-thione] |  | 1.6 | 32.2
7 | CCn1c(-c2ccc(Cl)cc2Cl)n[nH]c1=S [Example 12, 5-(2,4-chlorophenyl)-4-ethyl-2,4-dihydro-[1,2,4]triazol-3-thione] |  | 2.1 | 59.4
8 | CCn1c(-c2ccc(OC)c(OC)c2)n[nH]c1=S [Example 16, 5-(3,4-dimethoxyphenyl)-4-ethyl-2,4-dihydro-[1,2,4]triazol-3-thione] |  | 3.1 | 62.2
9 | Cc1ccccc1-c1n[nH]c(=S)n1-c1ccccc1 [Example 22, 5-(2-methylphenyl)-2,4-dihydro-4-phenyl-3H-[1,2,4]-triazol-3-thione] |  | 0.2 | 
10 | Sc1nnc(-c2ccccc2)n1-c1ccccc1 [Example 23, 2,4-dihydro-4,5-diphenyl-3H-[1,2,4]-triazol-3-thione] |  | 1.1 | 21.4
11 | COc1ccccc1-c1n[nH]c(=S)n1-c1ccccc1 [Example 24, 5-(2-methoxyphenyl)-2,4-dihydro-4-phenyl-3H-[1,2,4]-triazol-3-thione] |  | 2.5 | 
12 | Sc1nnc(-c2ccccc2)n1Cc1ccccc1 [Example 25, 2,4-dihydro-5-phenyl-4-(phenylmethyl)-3H-[1,2,4]-triazol-3-thione] |  | 8.1 | 
13 | COc1ccc(-c2n[nH]c(=S)n2-c2ccccc2)cc1OC [Example 26, 5-(3,4-dimethoxyphenyl)-2,4-dihydro-4-phenyl-3H-1,2,4-triazol-3-thione] |  | 0.8 | 
14 | Oc1ccc(-c2n[nH]c(=S)n2-c2ccccc2)cc1 [Example 27, 5-(4-hydroxyphenyl)-2,4-dihydro-4-phenyl-3H-[1,2,4]-triazol-3-thione] | 6 |  | 
15 | COc1cccc(-c2n[nH]c(=S)n2-c2ccccc2)c1 [Example 28, 5-(3-methoxyphenyl)-2,4-dihydro-4-phenyl-3H-[1,2,4]-triazol-3-thione] | 60 |  | 
16 | Oc1ccc(-c2n[nH]c(=S)n2Cc2ccccc2)cc1 [Example 29, 5-(4-hydroxyphenyl)-2,4-dihydro-4-phenylmethyl-3H-[1,2,4]-triazol-3-thione] | 42 |  | 
17 | Nc1ccc(-c2n[nH]c(=S)n2-c2ccccc2)cc1 [Example 31, 5-(4-aminophenyl)-2,4-dihydro-4-phenyl-3H-[1,2,4]-triazol-3-thione] | 15 |  | 
18 | COc1ccc(-c2n[nH]c(=S)n2C)cc1OC [Example 32, 5-(3,4-dimethoxyphenyl)-2,4-dihydro-4-methyl-3H-[1,2,4]-triazol-3-thione] |  | 1.5 | 21.6
19 | COc1ccc(-c2n[nH]c(=S)n2-c2ccccc2)cc1 [Example 33, 5-(4-methoxyphenyl)-2,4-dihydro-4-phenyl-3H-[1,2,4]-triazol-3-thione] |  | 4.1 | 
20 | S=c1nc(-c2ccccc2)[nH][nH]1 [Example 34, 1,2-dihydro-5-phenyl-3H-[1,2,4]-triazol-3-thione] | 58 |  | 
21 | Nc1ccccc1-c1n[nH]c(=S)n1-c1ccccc1 [Example 35, 5-(aminophenyl)-2,4-dihydro-4-phenyl-3H-[1,2,4]-triazol-3-thione] | 24 |  | 
22 | CCn1c(-c2ccccc2N)n[nH]c1=S [Example 36, 5-(2-aminophenyl)-4-ethyl-2,4-dihydro-[1,2,4]triazol-3-thione] |  | 0.4 | 53.7
23 | CNc1ccccc1-c1n[nH]c(=S)n1-c1ccccc1 [Example 37, 5-(2-methylaminophenyl)-4-phenyl-2,4-dihydro-[1,2,4]triazol-3-thione] | 7 |  | 
24 | Cn1c(-c2ccccc2N)n[nH]c1=S [Example 38, 5-(2-Aminophenyl)-2,4-dihydro-4-methyl-4H-[1,2,4]triazol-3-thione] | -0.1 |  | 51.2
25 | Nc1ccccc1-c1n[nH]c(=S)n1N [Example 39, 4-Amino-5-(2-aminophenyl)-2,4-dihydro-3H-[1,2,4]triazol-3-thione] | 57 |  | 
